According to patent publication US20240209014A1, “NOVEL SPINOSYN PRODRUGS” (Acies Bio d.o.o., priority 2021, published 2024):
≈ marks a conversion by molar mass, not a printed value. Where two headings read alike, the source gives them in different places.

How the values were obtained:
Kinetic solubility assay = format: physicochemical; conditions: dose conc 200 μM, 25±2° C.
Protocol: Solubility of the compounds of the invention was assessed using kinetic solubility assay and compared to solubility of butenyl spinosyn. Stock solutions of spinosyn compounds were prepared in DMSO at mM concentration). 10 uL of the stock solutions were added into 490 of in K.S. 5.4 buffer of pH 5.4 (80 mM phosphoric acid, acetic acid, boric acid buffer, adjusted the pH to pH 5.4 with 1 N HCl and 1N NaOH) or K.S. 7.4 buffer with pH of 7.4 (80 mM phosphoric acid, acetic acid, boric acid buffer, adjusted the pH to pH 7.4 with 1 N HCl and 1N NaOH). The solutions were incubated with shaking at room […] temperature (25±2° C.) for 24 hours. 200 uL of each solution were then transferred into a new MultiScreen filter plate (Membrane of polycarbonate) and filtered by millipore vacuum manifold, and the filtrate was collected. The concentrtions of tested compounds in the filtered samples were analyzed by HPLC analysis calibrated by a standard curve generated by injection of 3 standard solutions of the relevant compound with concentrations of 1, 20, 200 μM.

[1] = tested on: honey bees (Apis melifera carnica, Pollman 1879); assay: Single dose acute oral toxicity test on adult worker honey bees; format: in vivo
Protocol: Toxicity of the compounds of this invention towards honey bees (Apis melifera carnica, Pollman 1879) was assessed in comparison with commercially available samples of spinosad (LGC (Dr. Ehrenstorfer); Product code: DRE-C16972830) and the naturally produced compound butenyl spinosyn alpha 1. Solutions of spinosyn compounds were prepared in 100 mM ammonium acetate, pH=5, and later diluted in 50% (500 g/L) sucrose solution in water to final concentrations. Two final concentrations were used for each compound, 7.76 μmol/L and 15.53 μmol/L.
Single dose acute oral toxicity tests were conducted on adult worker bees according to previously described standard methods (Medrzycki at el., (2013)). Each compound and condition were tested in two parallels. Briefly, each parallel experiment consisted of 5 cages with 20 honey bees per cage. […] After uptake of the solutions honey bees were supplied with standard 50% sucrose solution and observed at 24 h and 48 h and the number of dead and live bees was estimated.
Ammonium acetate solution with pH 5 was used as the negative control.

[2] = Stability of J1A, J1B and J7 at different pH values (LC-MS); format: physicochemical
Protocol: Stability of compounds J1A, J1B and J7 was evaluated at different pH values. Differential stability/conversion to the active ingredient is expected to result in condition-specific activation and thereby to higher specificity towards target pests.
Stock solutions of the compounds were prepared at concentration of 0.1 mol/L. 10 μL of the stock solutions were transferred to 0.75 ml of the buffer solutions with pH values of 4, 5, 9 and 11. The resulting solutions were incubated for 10 minutes and 3 and 24 h. After specified times samples were analyzed using LC-MS. The compounds J1A, J1B, J7 and the active compound butenyl spinosyn were quantified. It is seen that the three compounds are converted to the active form preferably in alkaline conditions.

[3] = tested on: larvae of Ostrinia nubilialis (development stage L1); assay: Insecticide efficacy, corn leaf dip, Henderson-Tilton method; format: in vivo; conditions: for insecticidal activity on Ostrinia nubilialis larvae (in words): 0.1 and 0.3 μg/mL, leaf dip; for % efficacy (Henderson-Tilton): Ostrinia, foliar
Protocol: Insecticide activities of the compounds of this invention were assessed in comparison with commercially available samples of spinosad (LGC (Dr. Ehrenstorfer); Product code: DRE-C16972830) and spinetoram (LGC (Dr. Ehrenstorfer); Product code: DRE-C16972770). Solutions of spinosyn compounds were prepared by adding 0.05% Tween 80, lowering pH to 5.95 and sonicating. Two concentrations of each compound were used, 0.1 μg/ml and 0.3 μg/mL, with each condition tested in four parallels.
Freshly collected corn leaves were dipped into the prepared solutions. After dipping leaves were left to dry at room temperature for 1 hour. Each dry leaf was then infested with 4 larvae of Ostrinia nubilialis (development stage L1), and the experimental device was incubated at 21° C.-23° C. for 24 h in order to optimize insect development. At three timings post infestation (1 day, 3 days and 6 days), the insecticide efficacy is evaluated from the number of living larvae using the Henderson-Tilton method. Untreated control was integrated for normalization and validation of larvae health.

[4] = single oral dose 0.078 nmol/bee, 24 h after application
[5] = single oral dose 0.078 nmol/bee, 48 h after application
[6] = single oral dose 0.155 nmol/bee, 24 h after application
[7] = single oral dose 0.155 nmol/bee, 48 h after application
[8] = 24 h, read-out: % Efficacy, dose 0.1 μg a.i./ml, 1 day post infestation
[9] = 24 h, read-out: % Efficacy, dose 0.3 μg a.i./ml, 1 day post infestation
[10] = 72 h, read-out: % Efficacy, dose 0.1 μg a.i./ml, 3 days post infestation
[11] = 72 h, read-out: % Efficacy, dose 0.3 μg a.i./ml, 3 days post infestation
[12] = 144 h, read-out: % Efficacy, dose 0.1 μg a.i./ml, 6 days post infestation
[13] = 144 h, read-out: % Efficacy, dose 0.3 μg a.i./ml, 6 days post infestation
[14] = 25 °C, pH 5.4, aqueous buffer, kinetic from dmso stock, K.S. 5.4 buffer, read-out: Kinetic Solubility pH = 5.4
[15] = 25 °C, pH 7.4, aqueous buffer, kinetic from dmso stock, K.S. 7.4 buffer, read-out: Kinetic Solubility pH = 7.4

Structure (SMILES) | % of surviving honey bees [1, 4] | % of surviving honey bees [1, 5] | % of surviving honey bees [1, 6] | % of surviving honey bees [1, 7] | BuSPN Area % (active butenyl spinosyn released) ([2]; buffer pH 4, 0.16 h) | Compound (J1A/J1B/J7) Area % remaining ([2]; buffer pH 4, 0.16 h) | BuSPN Area % (active butenyl spinosyn released) ([2]; buffer pH 4, 3 h) | Compound (J1A/J1B/J7) Area % remaining ([2]; buffer pH 4, 3 h) | BuSPN Area % (active butenyl spinosyn released) ([2]; buffer pH 4, 24 h) | Compound (J1A/J1B/J7) Area % remaining ([2]; buffer pH 4, 24 h) | BuSPN Area % (active butenyl spinosyn released) ([2]; buffer pH 5, 0.16 h) | Compound (J1A/J1B/J7) Area % remaining ([2]; buffer pH 5, 0.16 h) | BuSPN Area % (active butenyl spinosyn released) ([2]; buffer pH 5, 3 h) | Compound (J1A/J1B/J7) Area % remaining ([2]; buffer pH 5, 3 h) | BuSPN Area % (active butenyl spinosyn released) ([2]; buffer pH 5, 24 h) | Compound (J1A/J1B/J7) Area % remaining ([2]; buffer pH 5, 24 h) | BuSPN Area % (active butenyl spinosyn released) ([2]; buffer pH 9, 0.16 h) | Compound (J1A/J1B/J7) Area % remaining ([2]; buffer pH 9, 0.16 h) | BuSPN Area % (active butenyl spinosyn released) ([2]; buffer pH 9, 3 h) | Compound (J1A/J1B/J7) Area % remaining ([2]; buffer pH 9, 3 h) | other results
CC/C=C/[C@H]1CCC[C@H](OC2CCC(N(C)C)C(C)O2)[C@@H](C)C(=O)C2=C[C@@H]3[C@@H](C=C[C@@H]4C[C@@H](OC5OC(C)C(OC)C(OC)C5OC)C[C@@H]34)[C@@H]2CC(=O)O1 (stereo partly drawn) [butenyl spinosyn, Butenyl spinosyn α1, reference compound] | 73% | 53% | 42% | 18% |  |  |  |  |  |  |  |  |  |  |  |  |  |  |  |  | solubility kinetic at 24 h (Kinetic solubility assay; K.S. 5.4 buffer, read-out: Kinetic Solubility pH = 5.4): 183.17 µM (≈ 139 µg/mL); solubility kinetic at 24 h (Kinetic solubility assay; K.S. 7.4 buffer, read-out: Kinetic Solubility pH = 7.4): 3.52 µM (≈ 2.67 µg/mL); toxicity to honey bees compared to corresponding derivatives (in words) ([1]; acute oral toxicity test): higher toxicity to honey bees
CC/C=C/[C@H]1CCC[C@H](OC2CCC([N+](C)(C)COC(=O)OC(C)C)C(C)O2)[C@@H](C)C(=O)C2=C[C@@H]3[C@@H](C=C[C@@H]4C[C@@H](OC5OC(C)C(OC)C(OC)C5OC)C[C@@H]34)[C@@H]2CC(=O)O1 (stereo partly shown) [Compound J7] | 96% | 94% | 85% | 63% | 0.0% | 19.2% | 0.0% | 4.1% | 0.0% | 3.8% | 0.2% | 99.2% | 0.3% | 99.7% | 0.5% | 99.2% | 44.4% | 54.2% | 90.8% | 7.6% | BuSPN Area % (active butenyl spinosyn released) ([2]; buffer pH 9, 24 h): 93.8%; Compound (J1A/J1B/J7) Area % remaining ([2]; buffer pH 9, 24 h): 0.6%; BuSPN Area % (active butenyl spinosyn released) ([2]; buffer pH 11, 0.16 h): 93.1%; Compound (J1A/J1B/J7) Area % remaining ([2]; buffer pH 11, 0.16 h): 6.7%; BuSPN Area % (active butenyl spinosyn released) ([2]; buffer pH 11, 3 h): 99.8%; Compound (J1A/J1B/J7) Area % remaining ([2]; buffer pH 11, 3 h): 0.0%; BuSPN Area % (active butenyl spinosyn released) ([2]; buffer pH 11, 24 h): 99.4%; Compound (J1A/J1B/J7) Area % remaining ([2]; buffer pH 11, 24 h): 0.0%; insecticidal activity on Ostrinia nubilialis larvae (in words) [3]: extremely potent insecticidal activity; % efficacy (Henderson-Tilton) [3, 8]: 31%; % efficacy (Henderson-Tilton) [3, 9]: 44%; % efficacy (Henderson-Tilton) [3, 10]: 73%; % efficacy (Henderson-Tilton) [3, 11]: 91%; % efficacy (Henderson-Tilton) [3, 12]: 91%; % efficacy (Henderson-Tilton) [3, 13]: 100%; solubility kinetic at 24 h (Kinetic solubility assay; [14]): 192 µM; solubility kinetic at 24 h (Kinetic solubility assay; [15]): 145 µM
CC/C=C/[C@H]1CCC[C@H](OC2CCC([N+](C)(C)COC(=O)C(C)(C)C)C(C)O2)[C@@H](C)C(=O)C2=C[C@@H]3[C@@H](C=C[C@@H]4C[C@@H](OC5OC(C)C(OC)C(OC)C5OC)C[C@@H]34)[C@@H]2CC(=O)O1 (stereo partly shown) [Compound J1A] | 95% | 92% | 89% | 75% | 0.0% | 5.7% | 0.0% | 2.0% | 0.0% | 0.1% | 0.1% | 99.4% | 0.1% | 99.3% | 1.7% | 97.4% | 32.6% | 66.4% | 71.8% | 26.6% | BuSPN Area % (active butenyl spinosyn released) ([2]; buffer pH 9, 24 h): 46.6%; Compound (J1A/J1B/J7) Area % remaining ([2]; buffer pH 9, 24 h): 0.0%; BuSPN Area % (active butenyl spinosyn released) ([2]; buffer pH 11, 0.16 h): 80.7%; Compound (J1A/J1B/J7) Area % remaining ([2]; buffer pH 11, 0.16 h): 18.4%; BuSPN Area % (active butenyl spinosyn released) ([2]; buffer pH 11, 3 h): 98.0%; Compound (J1A/J1B/J7) Area % remaining ([2]; buffer pH 11, 3 h): 0.5%; insecticidal activity on Ostrinia nubilialis larvae (in words) [3]: extremely potent insecticidal activity; % efficacy (Henderson-Tilton) [3, 8]: 2%; % efficacy (Henderson-Tilton) [3, 9]: 0%; % efficacy (Henderson-Tilton) [3, 10]: 44%; % efficacy (Henderson-Tilton) [3, 11]: 63%; % efficacy (Henderson-Tilton) [3, 12]: 89%; % efficacy (Henderson-Tilton) [3, 13]: 100%; solubility kinetic at 24 h (Kinetic solubility assay; [14]): 189 µM; solubility kinetic at 24 h (Kinetic solubility assay; [15]): 143 µM
